Measured values taken from ChEMBL document CHEMBL5143645, “Synthesis of harmine-nitric oxide donor derivatives as potential antitumor agents” (Bioorg Med Chem Lett, 2022).
pIC50: −log10 of the molar value. Each block holds one compound with its values, some of them ahead of it. Active and inactive are the calls of the source. No cut-off for these calls is given here.

Columns and labels:
[1] = tested on: MCF7; assay: Antiproliferative activity against human MCF7 cells assessed as reduction in cell viability incubated for 72 hrs by CCK-8 assay; assay type: functional, cell-based; details: MCF7, 72 h
[2] = tested on: BGC-823; assay: Antiproliferative activity against human BGC-823 cells assessed as reduction in cell viability incubated for 72 hrs by CCK-8 assay; assay type: functional, cell-based; details: BGC-823, 72 h
[3] = tested on: A549; assay: Antiproliferative activity against human A549 cells assessed as reduction in cell viability incubated for 72 hrs by CCK-8 assay; assay type: functional, cell-based; details: A549, 72 h
[4] = tested on: HepG2; assay: Antiproliferative activity against human HepG2 cells assessed as reduction in cell viability incubated for 72 hrs by CCK-8 assay; assay type: functional, cell-based; details: HepG2, 72 h
[5] = tested on: HCT-116; assay: Antiproliferative activity against human HCT-116 cells assessed as reduction in cell viability incubated for 72 hrs by CCK-8 assay; assay type: functional, cell-based; details: HCT-116, 72 h
[6] = Cytotoxicity against human L02 cells assessed as reduction in cell viability incubated for 72 hrs by CCK-8 assay; assay type: toxicity, cell-based
[7] = tested on: HepG2; assay: Induction of apoptosis in human HepG2 cells assessed as viable cells at 15 uM incubated for 24 hrs by PI and annexin V-FITC staining based flow cytometry (reference value: 93.97%); assay type: functional; details: read-out: Activity
[8] = Acute toxicity in ip dosed ICR mouse assessed as maximum tolerated dose measured over 14 days; assay type: organism-based; details: in vivo, time 14 day
[9] = tested on: HepG2; assay: Induction of NO release in human HepG2 cells assessed as increase in mean fluorescence intensity at 1 to 9 uM incubated for 72 hrs by DAF-FM DA dye based fluorescence microscopic analysis; assay type: functional, cell-based; details: dose 1-9 µM
[10] = Acute toxicity in ICR mouse assessed as change in activity at less than 100 mg/kg, ip measured over 14 days; assay type: organism-based; details: in vivo, 336 h, time 14 day
[11] = tested on: HepG2; assay: Induction of cell cycle arrest in human HepG2 cells assessed as accumulation of cells at G2/M phase at 1.5 uM incubated for 24 hrs by PI staining based flow cytometry analysis (reference value: 14.58%); assay type: functional
[12] = tested on: HepG2; assay: Induction of NO release in human HepG2 cells assessed as increase in mean fluorescence intensity at 1.5 uM incubated for 72 hrs by DAF-FM DA dye based fluorescence microscopic analysis; assay type: functional, cell-based
[13] = tested on: HepG2; assay: Induction of cell cycle arrest in human HepG2 cells assessed as accumulation of cells at G1 phase at 15 uM incubated for 24 hrs by PI staining based flow cytometry analysis (reference value: 42.39%); assay type: functional
[14] = tested on: HepG2; assay: Induction of apoptosis in human HepG2 cells assessed as late apoptotic cells at 1.5 uM incubated for 24 hrs by PI and annexin V-FITC staining based flow cytometry (reference value: 0.36%); assay type: functional
[15] = tested on: HepG2; assay: Induction of apoptosis in human HepG2 cells assessed as necrotic cells at 15 uM incubated for 24 hrs by PI and annexin V-FITC staining based flow cytometry (reference value: 0.36%); assay type: functional
[16] = tested on: HepG2; assay: Induction of cell cycle arrest in human HepG2 cells assessed as accumulation of cells at G1 phase at 7.5 uM incubated for 24 hrs by PI staining based flow cytometry analysis (reference value: 42.39%); assay type: functional
[17] = Stability of the compound in PBS at pH 7.4 assessed as parent compound remaining at 40 uM measured up to 36 hrs by HPLC analysis; assay type: physicochemical; details: buffer, pH 7.4, 36 h
[18] = tested on: HepG2; assay: Induction of cell cycle arrest in human HepG2 cells assessed as accumulation of cells at G1 phase at 1.5 uM incubated for 24 hrs by PI staining based flow cytometry analysis (reference value: 42.39%); assay type: functional
[19] = tested on: HepG2; assay: Induction of apoptosis in human HepG2 cells assessed as viable cells at 1.5 uM incubated for 24 hrs by PI and annexin V-FITC staining based flow cytometry (reference value: 93.97%); assay type: functional; details: read-out: Activity
[20] = tested on: HepG2; assay: Induction of cell cycle arrest in human HepG2 cells assessed as accumulation of cells at S phase at 15 uM incubated for 24 hrs by PI staining based flow cytometry analysis (reference value: 42.03%); assay type: functional
[21] = tested on: HepG2; assay: Induction of apoptosis in human HepG2 cells assessed as late apoptotic cells at 15 uM incubated for 24 hrs by PI and annexin V-FITC staining based flow cytometry (reference value: 0.36%); assay type: functional
[22] = tested on: HepG2; assay: Induction of apoptosis in human HepG2 cells assessed as late apoptotic cells at 7.5 uM incubated for 24 hrs by PI and annexin V-FITC staining based flow cytometry (reference value: 0.36%); assay type: functional
[23] = Acute toxicity in ICR mouse assessed as change in body weight at less than 100 mg/kg, ip measured over 14 days; assay type: organism-based; details: in vivo, 336 h, time 14 day
[24] = Acute toxicity in ICR mouse assessed as death time at 50 mg/kg, ip measured over 14 days; assay type: organism-based; details: in vivo, 336 h, time 14 day
[25] = Stability in Sprague-Dawley rat plasma assessed as parent compound remaining at 40 uM measured up to 36 hrs by HPLC analysis; assay type: ADME, cell-free
[26] = tested on: HepG2; assay: Induction of cell cycle arrest in human HepG2 cells assessed as accumulation of cells at S phase at 1.5 uM incubated for 24 hrs by PI staining based flow cytometry analysis (reference value: 42.03%); assay type: functional
[27] = Apparent permeability across apical to basolateral side in human Caco-2 cells at 2 uM measured after 2 hrs by […] dye based microplate reader analysis; assay type: ADME, cell-based
[28] = tested on: HepG2; assay: Induction of apoptosis in human HepG2 cells assessed as necrotic cells at 1.5 uM incubated for 24 hrs by PI and annexin V-FITC staining based flow cytometry (reference value: 0.36%); assay type: functional
[29] = tested on: HepG2; assay: Induction of cell cycle arrest in human HepG2 cells assessed as accumulation of cells at S phase at 7.5 uM incubated for 24 hrs by PI staining based flow cytometry analysis (reference value: 42.03%); assay type: functional
[30] = Acute toxicity in ICR mouse assessed as abnormality in drinking at less than 100 mg/kg, ip measured over 14 days; assay type: organism-based; details: in vivo, 336 h, time 14 day
[31] = tested on: HepG2; assay: Induction of cell cycle arrest in human HepG2 cells assessed as accumulation of cells at G2/M phase at 7.5 uM incubated for 24 hrs by PI staining based flow cytometry analysis (reference value: 14.58%); assay type: functional
[32] = tested on: HepG2; assay: Induction of apoptosis in human HepG2 cells assessed as early apoptotic cells at 7.5 uM incubated for 24 hrs by PI and annexin V-FITC staining based flow cytometry (reference value: 2.68%); assay type: functional
[33] = tested on: HepG2; assay: Induction of apoptosis in human HepG2 cells assessed as viable cells at 7.5 uM incubated for 24 hrs by PI and annexin V-FITC staining based flow cytometry (reference value: 93.97%); assay type: functional; details: read-out: Activity
[34] = Acute toxicity in ICR mouse assessed as death time at 10 mg/kg, ip measured over 14 days; assay type: organism-based; details: in vivo, 336 h, time 14 day
[35] = tested on: HepG2; assay: Induction of NO release in human HepG2 cells assessed as increase in mean fluorescence intensity at 1 uM incubated for 72 hrs by DAF-FM DA dye based fluorescence microscopic analysis; assay type: functional, cell-based
[36] = tested on: HepG2; assay: Induction of apoptosis in human HepG2 cells assessed as early apoptotic cells at 15 uM incubated for 24 hrs by PI and annexin V-FITC staining based flow cytometry (reference value: 2.68%); assay type: functional
[37] = tested on: HepG2; assay: Induction of apoptosis in human HepG2 cells assessed as early apoptotic cells at 1.5 uM incubated for 24 hrs by PI and annexin V-FITC staining based flow cytometry (reference value: 2.68%); assay type: functional
[38] = Acute toxicity in ICR mouse assessed as abnormality in eating at less than 100 mg/kg, ip measured over 14 days; assay type: organism-based; details: in vivo, 336 h, time 14 day
[39] = tested on: HepG2; assay: Induction of apoptosis in human HepG2 cells assessed as necrotic cells at 7.5 uM incubated for 24 hrs by PI and annexin V-FITC staining based flow cytometry (reference value: 0.36%); assay type: functional
[40] = Apparent permeability across basolateral to apical side in human Caco-2 cells at 2 uM measured after 2 hrs by […] dye based microplate reader analysis; assay type: ADME, cell-based
[41] = tested on: HepG2; assay: Induction of cell cycle arrest in human HepG2 cells assessed as accumulation of cells at G2/M phase at 15 uM incubated for 24 hrs by PI staining based flow cytometry analysis (reference value: 14.58%); assay type: functional

SMILES: COc1cccc2c1C(=O)c1c(O)c3c(c(O)c1C2=O)C[C@@](O)(C(=O)CO)C[C@@H]3O[C@H]1C[C@H](N)[C@H](O)[C@H](C)O1 [DOXORUBICIN]
pIC50 [1]: 6.42
pIC50 [2]: 6.18
pIC50 [3]: 5.98
pIC50 [4]: 6.37
pIC50 [5]: 6.06

SMILES: Br.Cc1c2c(cc[n+]1Cc1ccccc1)c1ccc(OCC(=O)OCCCCOc3no[n+]([O-])c3S(=O)(=O)c3ccccc3)cc1n2CCCc1ccccc1
pIC50 [1]: 5.55
viability at 15 µM [7]: 58.3%
MTD at 336 h [8]: 100 mg/kg
Activity [9]: Active
Activity [10]: Non-Toxic
Activity [11]: 18.57%
pIC50 [2]: 5.06
Activity [12]: Active
Activity [13]: 33.22%
Activity [14]: 4.28%
Activity [15]: 6.08%
Activity [16]: 33.77%
Stability [17]: Stable
pIC50 [3]: 5.46
Activity [18]: 40.68%
viability at 1.5 µM [19]: 81.2%
Activity [20]: 36.56%
Activity [21]: 14.73%
Activity [22]: 5.56%
Activity [23]: Non-Toxic
Activity [24]: Non-Toxic
Stability [25]: Stable
Activity [26]: 40.75%
Papp A→B at 2 h, 2 µM [27]: < 0.05 ×10⁻⁶ cm/s
Activity [28]: 4.44%
Activity [29]: 46.2%
Activity [30]: Non-Toxic
pIC50 [4]: 5.75
Activity [31]: 20.03%
Activity [32]: 12.78%
viability at 7.5 µM [33]: 77.2%
pIC50 [5]: 5.11
Activity [34]: Non-Toxic
Activity [35]: Active
Activity [36]: 20.86%
Activity [37]: 10.11%
IC50 at 72 h [6]: 10 µM
Activity [38]: Non-Toxic
Activity [39]: 4.45%
Papp B→A at 2 h, 2 µM [40]: < 0.05 ×10⁻⁶ cm/s
Activity [41]: 30.22%

SMILES: COc1ccc2c(c1)[nH]c1c(C)nccc12 [HARMINE]
pIC50 [1]: 4.82
pIC50 [2]: 4.81
pIC50 [3]: 5.28
pIC50 [4]: 4.77
pIC50 [5]: 5.16
Activity [34]: Non-Toxic
IC50 at 72 h [6]: 25.1 µM

Continued, in another order:

pIC50 [1]: 5.13
pIC50 [2]: 4.93
pIC50 [3]: 5.10
pIC50 [4]: 5.18
pIC50 [5]: 5.04
SMILES: O=S(=O)(c1ccccc1)c1c(OCCCO)no[n+]1[O-]
IC50 at 72 h [6]: 21.7 µM

pIC50 [1]: 4.58
pIC50 [2]: 4.43
pIC50 [3]: 4.28
pIC50 [4]: 3.95
pIC50 [5]: 4.40
SMILES: Cc1c2c(cc[n+]1Cc1ccccc1)c1ccc(OCC(=O)O)cc1n2CCCc1ccccc1
IC50 at 72 h [6]: 90.3 µM

pIC50 [1]: 5.31
pIC50 [2]: 5.50
pIC50 [3]: 5.46
pIC50 [4]: 5.30
pIC50 [5]: 5.21
SMILES: O=S(=O)(c1ccccc1)c1c(OCCCCO)no[n+]1[O-]
IC50 at 72 h [6]: 17.9 µM
